This note sets out measurements from US20110038791A1, “METHODS FOR INHIBITING SIX1 AND EYA PROTEINS” (priority 2008, published 2011).

As a reminder, the IC50 is the midpoint of a concentration-inhibition curve. A higher IC50 goes with a need for much substance.

Like-named read-outs stand apart in the source and are kept apart here.

The assay has as its target T1, human Eya2 Eya Domain (ED) (Homo sapiens, UniProt O00167).
T1 construct: a highly conserved C-terminal Eya domain (ED); made in house; host or cells: E. coli
T1 sequence (O00167 253-538 limits assumed): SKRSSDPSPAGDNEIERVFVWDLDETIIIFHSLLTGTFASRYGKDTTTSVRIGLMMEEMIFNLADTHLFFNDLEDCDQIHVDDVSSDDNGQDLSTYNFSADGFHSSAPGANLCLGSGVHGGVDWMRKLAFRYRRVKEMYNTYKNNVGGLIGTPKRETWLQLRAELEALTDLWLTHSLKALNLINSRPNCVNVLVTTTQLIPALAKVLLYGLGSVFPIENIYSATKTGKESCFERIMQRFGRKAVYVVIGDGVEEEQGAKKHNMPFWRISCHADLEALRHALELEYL
Nature of the assay: Inhibition of the phosphatase activity of Eya2 Eya Domain (ED) by known phosphatase inhibitors. The assay is classed as biochemical. As to conditions: for IC50: human Eya2 ED, FIG. 20.

Where [1] appears, read: at the concentrations that typically completely inhibit their cognate phosphatases.

`[Na+].[Na+].[O]=[Mo](=[O])([O-])[O-]` [Na2MoO4] displayed an IC50 of 11.3 ± 1.6 mM.

`C=C1[C@@H](O)[C@@H]2O[C@]3(CC[C@H](/C=C/[C@@H](C)[C@@H]4CC(C)=C[C@@]5(O[C@H](C[C@@](C)(O)C(=O)O)CC[C@H]5O)O4)O3)CC[C@H]2O[C@@H]1[C@@H](O)C[C@H](C)[C@H]1O[C@@]2(CCCCO2)CC[C@H]1C` [Okadaic acid]: the “effect on ED phosphatase activity” value is on record as “no effect”.

`[Na+].[Na+].[Na+].[O]=[V]([O-])([O-])[O-]` [Na3VO4] came in with an IC50 of 1.8 ± 0.2 mM.

cyclosporine A: the “effect on ED phosphatase activity” value is “no effect”.

Take `c1cnc2c(c1)ccc1cccnc12` [(1, 10)-phenanthroline]: the “effect on ED phosphatase activity” value under setting [1] is “no effect”.

Consider `N[C@@H](Cc1ccccc1)C(=O)O` [L-phenylalanine], for which, under setting [1], the “effect on ED phosphatase activity” value is “no effect”.

Turning to `O=P(O)(O)OC(CO)CO` [β-glycerophosphate], the IC50 came out at 8.2 ± 2.1 mM.
